Where two headings read alike, the source gives them in different places.
Tests used:
ROCK2 = molecular target: T1, ROCK2 (Homo sapiens, UniProt O75116); assay: ROCK2 kinase binding affinity, DiscoverX KINOMEscan KdELECT; details: for ROCK2 Selectivity: selectivity for ROCK2 over ROCK1 from Kd
T1 construct: T7 phage fusion (kinase-tagged phage) or DNA tag for qPCR detection
Method: (§1) 1. ROCK1 and ROCK2 kinase assays: The ROCK1 and ROCK2 kinase binding affinities of compounds in this disclosure were determined by DiscoverX's KINOMEscan™ KdELECT technology (https://www.discoverx.com/kinomescan-elect-kinase-screening-and-profiling-services): Kinase-tagged T7 phage strains were prepared in an E. coli host derived from the BL21 strain. E. coli were grown to log-phase and infected with T7 phage and incubated with shaking at 32° C. until lysis. The lysates were centrifuged and filtered to remove cell debris. The remaining kinases were produced in HEK-293 cells and subsequently tagged with DNA for qPCR detection. […] The liganded beads were blocked with excess biotin and washed with blocking buffer (SeaBlock (Pierce), 1% BSA, 0.05% Tween 20, 1 mM DTT) to remove unbound ligand and to reduce nonspecific binding. […] Kds were determined using an 11-point 3-fold compound dilution series with three DMSO control points. […] The compounds were then diluted directly into the assays such that the final concentration of DMSO was 0.9%. All reactions performed in polypropylene 384-well plate. Each was a final volume of 0.02 ml. […] The kinase concentration in the eluates was measured by qPCR.

ROCK1 = molecular target: T2, ROCK1 (Homo sapiens, UniProt Q13464); assay: ROCK1 kinase binding affinity, DiscoverX KINOMEscan KdELECT; details: 11-point 3-fold dilution
T2 construct: T7 phage fusion (kinase-tagged phage) or DNA tag for qPCR detection
Method: as §1

[1] = KINOMEscan KdELECT, 11-point 3-fold dilution, read-out: Kd (μM) ROCK2

T2 sequence (Q13464 whole entry, the tested form may be a part): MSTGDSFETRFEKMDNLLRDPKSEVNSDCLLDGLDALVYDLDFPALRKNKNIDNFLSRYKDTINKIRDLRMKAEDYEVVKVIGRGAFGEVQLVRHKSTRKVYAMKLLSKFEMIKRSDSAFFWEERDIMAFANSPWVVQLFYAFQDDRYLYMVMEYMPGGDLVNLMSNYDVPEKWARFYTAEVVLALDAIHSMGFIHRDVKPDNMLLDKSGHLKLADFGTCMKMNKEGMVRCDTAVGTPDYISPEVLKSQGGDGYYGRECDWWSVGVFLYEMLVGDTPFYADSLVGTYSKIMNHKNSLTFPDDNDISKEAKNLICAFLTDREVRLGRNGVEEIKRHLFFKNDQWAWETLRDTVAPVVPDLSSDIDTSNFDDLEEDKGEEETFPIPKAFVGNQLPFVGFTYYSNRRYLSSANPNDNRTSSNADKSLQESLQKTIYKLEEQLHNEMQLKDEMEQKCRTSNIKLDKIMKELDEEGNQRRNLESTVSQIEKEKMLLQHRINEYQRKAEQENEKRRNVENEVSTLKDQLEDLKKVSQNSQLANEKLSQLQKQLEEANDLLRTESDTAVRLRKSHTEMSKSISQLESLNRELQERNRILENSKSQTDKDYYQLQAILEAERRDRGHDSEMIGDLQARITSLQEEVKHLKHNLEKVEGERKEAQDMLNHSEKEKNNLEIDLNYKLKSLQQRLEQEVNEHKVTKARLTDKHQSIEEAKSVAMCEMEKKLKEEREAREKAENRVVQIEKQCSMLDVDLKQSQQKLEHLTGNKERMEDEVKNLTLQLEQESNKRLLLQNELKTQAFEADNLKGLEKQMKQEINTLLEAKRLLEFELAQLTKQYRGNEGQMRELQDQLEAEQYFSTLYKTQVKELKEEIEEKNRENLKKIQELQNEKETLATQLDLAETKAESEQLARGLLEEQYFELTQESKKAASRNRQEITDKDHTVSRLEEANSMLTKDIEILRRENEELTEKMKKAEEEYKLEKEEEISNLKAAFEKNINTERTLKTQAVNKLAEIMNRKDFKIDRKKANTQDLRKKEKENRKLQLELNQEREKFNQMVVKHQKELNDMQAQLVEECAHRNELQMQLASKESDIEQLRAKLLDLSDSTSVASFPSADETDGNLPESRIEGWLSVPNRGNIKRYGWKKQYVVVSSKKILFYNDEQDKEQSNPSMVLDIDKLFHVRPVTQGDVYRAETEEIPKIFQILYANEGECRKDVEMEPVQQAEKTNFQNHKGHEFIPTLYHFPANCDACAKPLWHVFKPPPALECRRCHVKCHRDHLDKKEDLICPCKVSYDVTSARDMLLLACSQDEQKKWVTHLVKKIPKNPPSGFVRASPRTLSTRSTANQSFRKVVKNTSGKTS
T1 sequence (O75116 whole entry, the tested form may be a part): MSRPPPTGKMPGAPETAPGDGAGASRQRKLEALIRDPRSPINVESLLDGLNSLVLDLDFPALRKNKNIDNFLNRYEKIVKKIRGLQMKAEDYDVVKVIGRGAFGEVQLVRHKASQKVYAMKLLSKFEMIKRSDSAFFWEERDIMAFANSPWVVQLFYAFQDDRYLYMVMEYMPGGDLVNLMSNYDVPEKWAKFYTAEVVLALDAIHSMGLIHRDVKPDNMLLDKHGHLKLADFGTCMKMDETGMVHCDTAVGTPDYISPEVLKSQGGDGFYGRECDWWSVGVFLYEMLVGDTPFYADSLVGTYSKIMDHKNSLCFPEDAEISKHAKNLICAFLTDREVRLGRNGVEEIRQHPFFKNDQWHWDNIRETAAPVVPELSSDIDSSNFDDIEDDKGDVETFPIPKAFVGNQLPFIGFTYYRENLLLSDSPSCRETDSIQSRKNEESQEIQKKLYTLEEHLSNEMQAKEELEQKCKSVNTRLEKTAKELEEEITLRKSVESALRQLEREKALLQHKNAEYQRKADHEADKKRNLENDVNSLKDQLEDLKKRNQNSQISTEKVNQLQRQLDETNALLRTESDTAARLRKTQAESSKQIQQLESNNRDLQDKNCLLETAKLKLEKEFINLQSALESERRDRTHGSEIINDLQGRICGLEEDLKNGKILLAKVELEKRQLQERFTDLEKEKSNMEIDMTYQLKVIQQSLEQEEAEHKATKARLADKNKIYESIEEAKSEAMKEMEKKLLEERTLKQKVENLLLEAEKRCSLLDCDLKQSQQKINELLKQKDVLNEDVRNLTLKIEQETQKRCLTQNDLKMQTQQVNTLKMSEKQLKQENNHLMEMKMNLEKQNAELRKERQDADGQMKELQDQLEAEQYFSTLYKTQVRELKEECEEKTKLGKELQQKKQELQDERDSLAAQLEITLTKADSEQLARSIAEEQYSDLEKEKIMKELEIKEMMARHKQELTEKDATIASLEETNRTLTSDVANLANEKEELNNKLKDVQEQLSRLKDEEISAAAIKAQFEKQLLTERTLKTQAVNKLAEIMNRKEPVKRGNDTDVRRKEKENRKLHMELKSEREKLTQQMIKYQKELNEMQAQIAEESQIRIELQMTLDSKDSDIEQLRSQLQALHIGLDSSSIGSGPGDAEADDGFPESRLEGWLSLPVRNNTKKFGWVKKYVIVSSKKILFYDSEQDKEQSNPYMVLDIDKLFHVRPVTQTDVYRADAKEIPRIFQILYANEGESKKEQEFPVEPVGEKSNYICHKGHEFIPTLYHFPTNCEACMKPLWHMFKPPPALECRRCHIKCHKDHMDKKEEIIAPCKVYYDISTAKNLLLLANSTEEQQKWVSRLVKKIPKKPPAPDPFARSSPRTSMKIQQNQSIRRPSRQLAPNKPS

Kd (ROCK2; [1])	Kd (ROCK1)	Structure (SMILES)	ROCK2 Selectivity (ROCK2)	Kd (ROCK2)
0.1 to 0.99 µM	1 to 9.9 µM	O=C(O)[C@H]1CC[C@H](Nc2nccc(-c3nccc(C#Cc4ccc5[nH]ncc5c4)n3)n2)CC1 [Ex. 87, (1r,4r)-4-((4-((1H-Indazol-5-yl)ethynyl)-[2,4′-bipyrimidin]-2′-yl)amino)cyclohexanecarboxylic acid]	* (<50-fold selectivity for ROCK2)	
0.01 to 0.099 µM	0.1 to 0.99 µM	C(#Cc1ccnc(-c2ccnc(NCc3ncccn3)n2)n1)c1ccc2[nH]ncc2c1 [Ex. 7, 4-((1H-indazol-5-yl)ethynyl)-N-(pyrimidin-2-ylmethyl)-[2,4′-bipyrimidin]-2′-amine]	* (<50-fold selectivity for ROCK2)	
0.01 to 0.099 µM	1 to 9.9 µM	Fc1ccc(CNc2nccc(-c3nccc(C#Cc4ccc5[nH]ncc5c4)n3)n2)cc1 [Ex. 8, 4-((1H-Indazol-5-yl)ethynyl)-N-(4-fluorobenzyl)-[2,4′-bipyrimidin]-2′-amine]	*** (151 to 500-fold selectivity for ROCK2)	
< 0.01 µM	1 to 9.9 µM	O[C@@H]1CC[C@@H](Nc2nccc(-c3nccc(C#Cc4ccc5[nH]ncc5c4)n3)n2)C1 [Ex. 78, (1R,3R)-3-((4-((1H-Indazol-5-yl)ethynyl)-[2,4′-bipyrimidin]-2′-yl)amino)cyclopentanol]	*** (151 to 500-fold selectivity for ROCK2)	
0.01 to 0.099 µM	1 to 9.9 µM	Fc1cnccc1CNc1nccc(-c2nccc(C#Cc3ccc4[nH]ncc4c3)n2)n1 [Ex. 31, 4-((1H-Indazol-5-yl)ethynyl)-N-((3-fluoropyridin-4-yl)methyl)-[2,4′-bipyrimidin]-2′-amine]	** (50 to 150-fold selectivity for ROCK2)	
< 0.01 µM	0.1 to 0.99 µM	O=S1(=O)CC[C@H](Nc2nccc(-c3nccc(C#Cc4ccc5[nH]ncc5c4)n3)n2)C1 [Ex. 83, (S)-3-((4-((1H-Indazol-5-yl)ethynyl)-[2,4′-bipyrimidin]-2′-yl)amino)tetrahydrothiophene 1,1-dioxide]	*** (151 to 500-fold selectivity for ROCK2)	
< 0.01 µM	0.1 to 0.99 µM	C(#Cc1ccnc(-c2ccnc(NC[C@H]3CCCO3)n2)n1)c1ccc2[nH]ncc2c1 [Ex. 34, (R)-4-((1H-Indazol-5-yl)ethynyl)-N-((tetrahydrofuran-2-yl)methyl)-[2,4′-bipyrimidin]-2′-amine]	*** (151 to 500-fold selectivity for ROCK2)	
0.1 to 0.99 µM	1 to 9.9 µM	CN(C)CCNc1nccc(-c2nccc(C#Cc3ccc4[nH]ncc4c3)n2)n1 [Ex. 54, N1-(4-((1H-Indazol-5-yl)ethynyl)-[2,4′-bipyrimidin]-2′-yl)-N2,N2-dimethylethane-1,2-diamine]	* (<50-fold selectivity for ROCK2)	
0.01 to 0.099 µM	0.1 to 0.99 µM	CN1CCN(C(=O)CNc2nccc(-c3nccc(C#Cc4ccc5[nH]ncc5c4)n3)n2)CC1 [Ex. 73, 2-((4-((1H-Indazol-5-yl)ethynyl)-[2,4′-bipyrimidin]-2′-yl)amino)-1-(4-methylpiperazin-1-yl)ethanone]	* (<50-fold selectivity for ROCK2)	
0.01 to 0.099 µM	1 to 9.9 µM	Fc1ncccc1CNc1nccc(-c2nccc(C#Cc3cc(F)c4[nH]ncc4c3)n2)n1 [Ex. 42, 4-((7-Fluoro-1H-indazol-5-yl)ethynyl)-N-((2-fluoropyridin-3-yl)methyl)-[2,4′-bipyrimidin]-2′-amine]	** (50 to 150-fold selectivity for ROCK2)	
0.01 to 0.099 µM	0.1 to 0.99 µM	COc1ccnc(CNc2nccc(-c3nccc(C#Cc4ccc5[nH]ncc5c4)n3)n2)c1 [Ex. 11, 4-((1H-Indazol-5-yl)ethynyl)-N-((4-methoxypyridin-2-yl)methyl)-[2,4′-bipyrimidin]-2′-amine]	** (50 to 150-fold selectivity for ROCK2)	
1 to 9.9 µM	10 to 100 µM	Fc1cc(F)c(F)c(CNc2nccc(-c3nccc(C#Cc4ccc5[nH]nc(F)c5c4)n3)n2)c1 [Ex. 60, 4-((3-Fluoro-1H-indazol-5-yl)ethynyl)-N-(2,3,5-trifluorobenzyl)-[2,4′-bipyrimidin]-2′-amine]	* (<50-fold selectivity for ROCK2)	
0.01 to 0.099 µM	1 to 9.9 µM	COc1ccccc1CNc1nccc(-c2nccc(C#Cc3ccc4[nH]ncc4c3)n2)n1 [Ex. 18, 4-((1H-Indazol-5-yl)ethynyl)-N-(2-methoxybenzyl)-[2,4′-bipyrimidin]-2′-amine]	** (50 to 150-fold selectivity for ROCK2)	
< 0.01 µM	0.1 to 0.99 µM	O=C(CNc1nccc(-c2nccc(C#Cc3ccc4[nH]ncc4c3)n2)n1)N1CCCC1 [Ex. 52, 2-((4-((1H-Indazol-5-yl)ethynyl)-[2,4′-bipyrimidin]-2′-yl)amino)-1-(pyrrolidin-1-yl)ethanone]	** (50 to 150-fold selectivity for ROCK2)	
< 0.01 µM	1 to 9.9 µM	Fc1cc(CNc2nccc(-c3nccc(C#Cc4ccc5[nH]ncc5c4)n3)n2)ccn1 [Ex. 33, 4-((1H-Indazol-5-yl)ethynyl)-N-((2-fluoropyridin-4-yl)methyl)-[2,4′-bipyrimidin]-2′-amine]	*** (151 to 500-fold selectivity for ROCK2)	
0.01 to 0.099 µM	10 to 100 µM	Fc1ccccc1CNc1nccc(-c2nccc(C#Cc3ccc4[nH]ncc4c3)n2)n1 [Ex. 15, 4-((1H-Indazol-5-yl)ethynyl)-N-(2-fluorobenzyl)-[2,4′-bipyrimidin]-2′-amine]	*** (151 to 500-fold selectivity for ROCK2)	
< 0.01 µM	0.1 to 0.99 µM	COC(=O)[C@H]1CC[C@@H](Nc2nccc(-c3nccc(C#Cc4ccc5[nH]ncc5c4)n3)n2)CC1 [Ex. 91, (1s,4s)-Methyl 4-((4-((1H-indazol-5-yl)ethynyl)-[2,4′-bipyrimidin]-2′-yl)amino)cyclohexanecarboxylate]	** (50 to 150-fold selectivity for ROCK2)	
0.01 to 0.099 µM	1 to 9.9 µM	C(#Cc1ccnc(-c2ccnc(NCc3ccccn3)n2)n1)c1ccc2[nH]ncc2c1 [Ex. 22, 4-((1H-Indazol-5-yl)ethynyl)-N-(pyridin-2-ylmethyl)-[2,4′-bipyrimidin]-2′-amine]	** (50 to 150-fold selectivity for ROCK2)	
0.01 to 0.099 µM	1 to 9.9 µM	COc1cc(F)ccc1CNc1nccc(-c2nccc(C#Cc3ccc4[nH]ncc4c3)n2)n1 [Ex. 12, 4-((1H-Indazol-5-yl)ethynyl)-N-(4-fluoro-2-methoxybenzyl)-[2,4′-bipyrimidin]-2′-amine]	*** (151 to 500-fold selectivity for ROCK2)	
0.01 to 0.099 µM	1 to 9.9 µM	CC1(CNc2nccc(-c3nccc(C#Cc4ccc5[nH]ncc5c4)n3)n2)CCCO1 (stereo not drawn) [Ex. 53, 4-((1H-Indazol-5-yl)ethynyl)-N-((2-methyltetrahydrofuran-2-yl)methyl)-[2,4′-bipyrimidin]-2′-amine]	** (50 to 150-fold selectivity for ROCK2)	
< 0.01 µM	0.1 to 0.99 µM	Fc1cnc(CNc2nccc(-c3nccc(C#Cc4ccc5[nH]ncc5c4)n3)n2)c(F)c1 [Ex. 38, 4-((1H-Indazol-5-yl)ethynyl)-N-((3,5-difluoropyridin-2-yl)methyl)-[2,4′-bipyrimidin]-2′-amine]	** (50 to 150-fold selectivity for ROCK2)	
0.01 to 0.099 µM	1 to 9.9 µM	Fc1cccc(CNc2nccc(-c3nccc(C#Cc4ccc5[nH]ncc5c4)n3)n2)n1 [Ex. 32, 4-((1H-Indazol-5-yl)ethynyl)-N-((6-fluoropyridin-2-yl)methyl)-[2,4′-bipyrimidin]-2′-amine]	** (50 to 150-fold selectivity for ROCK2)	
0.01 to 0.099 µM	10 to 100 µM	Fc1ccc(CNc2nccc(-c3nccc(C#Cc4ccc5[nH]nc(F)c5c4)n3)n2)nc1 [Ex. 45, 4-((3-Fluoro-1H-indazol-5-yl)ethynyl)-N-((5-fluoropyridin-2-yl)methyl)-[2,4′-bipyrimidin]-2′-amine]	**** (>500-fold selectivity for ROCK2)	
< 0.01 µM	1 to 9.9 µM	C(#Cc1ccnc(-c2ccnc(N[C@@H]3CCOC3)n2)n1)c1ccc2[nH]ncc2c1 [Ex. 59, (R)-4-((1H-Indazol-5-yl)ethynyl)-N-(tetrahydrofuran-3-yl)-[2,4′-bipyrimidin]-2′-amine]	*** (151 to 500-fold selectivity for ROCK2)	

Structure (SMILES)	Kd (ROCK2; [1])	Kd (ROCK1)	ROCK2 Selectivity (ROCK2)	Kd (ROCK2)
COCCNc1nccc(-c2nccc(C#Cc3ccc4[nH]ncc4c3)n2)n1 [Ex. 75, 4-((1H-Indazol-5-yl)ethynyl)-N-(2-methoxyethyl)-[2,4′-bipyrimidin]-2′-amine]		1 to 9.9 µM	*** (151 to 500-fold selectivity for ROCK2)	< 0.01 µM
O[C@H]1CC[C@@H](Nc2nccc(-c3nccc(C#Cc4ccc5[nH]cnc5c4)n3)n2)CC1 [Ex. 95, (1s,4s)-4-((4-((1H-Benzo[d]imidazol-5-yl)ethynyl)-[2,4′-bipyrimidin]-2′-yl)amino)cyclohexanol]		10 to 100 µM	*** (151 to 500-fold selectivity for ROCK2)	0.01 to 0.099 µM
